The text below walks through data of paper PMC5815522 (Bioorganic & medicinal chemistry, 2016).

Data set [1] has as its system HUT-78 cells. As to the kind of experiment: Uptake in presence and absence of verapamil by flow cytometry. Format: cell-based, human. To be noted: 2 × 10^−7 M selenorhodamine, 1 × 10^−4 M VER, 1 h, mean ± SD.
The test system of data set [2] is CD3+ (resting T cells). Format: cell-based, human.
For data set [3], the system named is HUT-78 cells. Format: cell-based, human.
Data set [4] has as its system CD3+ cells of SEB-stimulated PBMCs. Format: cell-based, human.
In data set [5] the test system is CD3+ (CD25+) cells. Type of data set: cell-based, human.
For data set [6] the following is noted: in CH3OH; cited from earlier work.
For data set [7] the following is noted: in CH3OH, cited from earlier work.
For data set [8] the following is noted: CH3OH, ± SD; cited from earlier work.
In data set [9] the test system is Colo-26 cells. To be noted: P-gp-expressing Colo-26 cells; cited from earlier work.
The conditions of data set [10]: ± SD; cited from earlier work.
For data set [11], the target named is P-gp (Homo sapiens, UniProt P08183). The data set is described as follows: P-gp transport studies across MDCKII-MDR1 monolayers.
Chain of P-gp (P08183 whole entry): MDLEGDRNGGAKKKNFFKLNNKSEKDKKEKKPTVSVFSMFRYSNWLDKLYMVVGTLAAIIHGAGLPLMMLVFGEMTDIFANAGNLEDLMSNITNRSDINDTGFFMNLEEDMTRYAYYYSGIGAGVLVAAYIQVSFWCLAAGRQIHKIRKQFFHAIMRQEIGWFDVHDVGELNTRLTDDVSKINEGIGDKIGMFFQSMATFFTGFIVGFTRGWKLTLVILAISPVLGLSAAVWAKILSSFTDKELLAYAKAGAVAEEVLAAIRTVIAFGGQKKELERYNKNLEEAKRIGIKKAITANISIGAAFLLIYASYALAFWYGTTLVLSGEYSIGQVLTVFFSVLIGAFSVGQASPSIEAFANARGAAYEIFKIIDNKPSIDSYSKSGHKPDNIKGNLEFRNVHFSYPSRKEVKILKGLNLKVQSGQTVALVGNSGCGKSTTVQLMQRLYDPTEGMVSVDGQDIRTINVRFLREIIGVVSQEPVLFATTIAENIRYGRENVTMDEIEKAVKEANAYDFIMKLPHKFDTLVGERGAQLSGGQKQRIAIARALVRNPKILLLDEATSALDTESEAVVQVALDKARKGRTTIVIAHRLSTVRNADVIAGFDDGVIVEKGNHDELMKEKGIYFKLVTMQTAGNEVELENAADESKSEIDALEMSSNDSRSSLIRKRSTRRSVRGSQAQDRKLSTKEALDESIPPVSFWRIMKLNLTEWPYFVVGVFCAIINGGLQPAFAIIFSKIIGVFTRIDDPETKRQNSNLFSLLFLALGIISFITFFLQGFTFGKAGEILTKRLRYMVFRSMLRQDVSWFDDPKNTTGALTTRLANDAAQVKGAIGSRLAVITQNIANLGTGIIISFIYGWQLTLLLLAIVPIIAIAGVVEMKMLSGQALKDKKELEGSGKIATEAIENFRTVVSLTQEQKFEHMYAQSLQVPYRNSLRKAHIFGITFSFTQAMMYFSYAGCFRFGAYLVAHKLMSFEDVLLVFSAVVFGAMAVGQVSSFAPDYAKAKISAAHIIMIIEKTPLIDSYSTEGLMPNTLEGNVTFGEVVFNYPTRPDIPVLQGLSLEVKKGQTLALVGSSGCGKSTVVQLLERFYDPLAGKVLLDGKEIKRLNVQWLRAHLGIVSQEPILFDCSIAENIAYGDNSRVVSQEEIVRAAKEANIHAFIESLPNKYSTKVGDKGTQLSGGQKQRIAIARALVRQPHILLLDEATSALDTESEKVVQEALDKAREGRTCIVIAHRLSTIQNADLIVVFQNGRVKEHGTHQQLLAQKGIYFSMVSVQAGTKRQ
[12] abbreviates: no inhibitor, 5 × 10^−6 M dye, 4.3 mg mL^−1 BSA, ± SD.
The mark [13] stands for this setting: with 5 × 10^−6 M inhibitor 15, 5 × 10^−6 M dye, 4.3 mg mL^−1 BSA, ± SD.

Values joined by “and” are separate entries in the source; they are usually repeats but may differ in a detail not shown here. Equal values may be shown once.

On to `O=C(c1ccc(C2=c3cc4c5c(c3[Se]c3c2cc2c6c3CCCN6CCC2)CCC[N+]=5CCC4)s1)N1CCCCC1.[Cl-]` [Compd 6, 9-(5-(piperidylcarbamoyl)thiophen-2-yl)-2,3,6,7,12,13,16,17-octa-hydro[1H,5H,11H,15H]-10-selenoxantheno-[2,3,4-ij:5,6,7-i′j′]diquinolizin-18-ium chloride], for which the “ratio of uptake +VER/−VER” value in [1] amounted to 1.13 ± 0.08. In addition, the “% survival of the CD3+, CD4+, and CD8+ populations” value in [2] is recorded as 62–78%. Besides, in data set [3], the “% of HUT-78 cells to which the photosensitizer was phototoxic” value was > 90% and 91%; the “% survival HUT-78” value is 9.3 ± 2.7%. For the same compound, the “% survival CD3+” value in data set [4] was 65%. Further, the “% survival CD3+ (CD25+)” value in data set [5] was 37.4 ± 3.2%. Moreover, in data set [6], the “Absorption maximum λmax” value was 626 nm and the “Molar extinction coefficient ε” value was 135000 M⁻¹ cm⁻¹. The “Quantum yield for fluorescence ΦFL” value in data set [7] (excitation at 532 nm, ± SD) is recorded as 0.012 ± 0.001. Besides, the “Fluorescence emission maximum λFL” value in [7] is given as 660 nm. Moreover, the “Quantum yield for the generation of singlet oxygen Φ(1O2)” value in data set [8] was 0.64 ± 0.03. The “ratio of uptake +VER/−VER” value in data set [9] was 7.6. In data set [10], the “n-octanol/water partition coefficient log P” value was 3.71 ± 0.08. Further, the PPassive in data set [11] (mean of PAB and PBA in the fully inhibited system) is given as ~2 ×10^−9 m s^−1. Moreover, in data set [11] (no inhibitor), the PBA/PAB was 37. In data set [11] (setting [12]), the “PAB, transport in absorptive direction” value is 2.1 ± 0.1 ×10^−9 m s^−1 and the “PBA, transport in secretory direction” value is reported as 78 ×10^−9 m s^−1. Also, in [11] (setting [13]), the “PAB, transport in absorptive direction (+inh)” value was 0.24 ± 0.1 ×10^−9 m s^−1 and the “PBA, transport in secretory direction (+inh)” value is reported as 4.8 ± 0.1 ×10^−9 m s^−1.
